According to patent US8148391B2 (Cephalon, Inc., priority 2006, dated 2012):
Where two headings read alike, the source gives them in different places.

How the values were obtained:
[1] = biological target: T1, c-Met (cytoplasmic domain) (Homo sapiens, UniProt P08581); experiment: c-Met Kinase Assay (same methods as for ALK, with modifications); format: biochemical
T1 construct: 10 ng/mL c-Met (cytoplasmic domain, Invitrogen Corporation #PV3143); purchased Invitrogen Corporation PV3143
Summary of the method: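 Plates were coated with phospholipase C-γ substrate (10 μg/mL) in TBS, and the reaction was started with 10 ng/mL c-Met cytoplasmic domain and run 15 min at 37 °C. Phosphoproduct was detected with Eu-N1-labelled PT66 antibody. IC50 came from a variable-slope sigmoidal fit of percent inhibition vs log concentration.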

[2] = biological target: T2, baculovirus-expressed ALK (Homo sapiens, UniProt Q9UM73); experiment: ALK Kinase Assay (ELISA-type, time-resolved fluorescence); format: biochemical
T2 construct: host or cells: baculovirus expression system
Summary of the method: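 Plates coated with phospholipase C-γ substrate (10 μg/mL in TBS); reaction started with 30 ng/ml ALK and run 15 min at 37° C. Phosphorylated substrate detected with Eu-N1-labeled PT66 antibody. IC50 from sigmoidal variable-slope fit of percent inhibition vs log concentration.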

[3] = c-Met kinase inhibition, 1 μM ATP (Km level), read-out: cMet Activity
[4] = ALK kinase inhibition, 1 μM ATP (Km level), read-out: ALK Activity
[5] = 1 μM ATP (Km level), 10 ng/mL c-Met, read-out: cMet Activity (c-Met kinase inhibition, IC50 class)
[6] = 1 μM ATP (Km level), 30 ng/ml ALK, 37° C., 15 minutes, read-out: ALK Activity (ALK kinase inhibition, IC50 class)
[7] = 1 μM ATP (Km level), read-out: cMet Activity (c-Met Kinase Inhibition, IC50)
[8] = 1 μM ATP (Km level), read-out: ALK Activity (ALK Kinase Inhibition, IC50)
[9] = c-Met kinase inhibition, 1 μM ATP, read-out: cMet Activity
[10] = ALK kinase inhibition, 1 μM ATP, read-out: ALK Activity

T2 sequence (Q9UM73 19-1620): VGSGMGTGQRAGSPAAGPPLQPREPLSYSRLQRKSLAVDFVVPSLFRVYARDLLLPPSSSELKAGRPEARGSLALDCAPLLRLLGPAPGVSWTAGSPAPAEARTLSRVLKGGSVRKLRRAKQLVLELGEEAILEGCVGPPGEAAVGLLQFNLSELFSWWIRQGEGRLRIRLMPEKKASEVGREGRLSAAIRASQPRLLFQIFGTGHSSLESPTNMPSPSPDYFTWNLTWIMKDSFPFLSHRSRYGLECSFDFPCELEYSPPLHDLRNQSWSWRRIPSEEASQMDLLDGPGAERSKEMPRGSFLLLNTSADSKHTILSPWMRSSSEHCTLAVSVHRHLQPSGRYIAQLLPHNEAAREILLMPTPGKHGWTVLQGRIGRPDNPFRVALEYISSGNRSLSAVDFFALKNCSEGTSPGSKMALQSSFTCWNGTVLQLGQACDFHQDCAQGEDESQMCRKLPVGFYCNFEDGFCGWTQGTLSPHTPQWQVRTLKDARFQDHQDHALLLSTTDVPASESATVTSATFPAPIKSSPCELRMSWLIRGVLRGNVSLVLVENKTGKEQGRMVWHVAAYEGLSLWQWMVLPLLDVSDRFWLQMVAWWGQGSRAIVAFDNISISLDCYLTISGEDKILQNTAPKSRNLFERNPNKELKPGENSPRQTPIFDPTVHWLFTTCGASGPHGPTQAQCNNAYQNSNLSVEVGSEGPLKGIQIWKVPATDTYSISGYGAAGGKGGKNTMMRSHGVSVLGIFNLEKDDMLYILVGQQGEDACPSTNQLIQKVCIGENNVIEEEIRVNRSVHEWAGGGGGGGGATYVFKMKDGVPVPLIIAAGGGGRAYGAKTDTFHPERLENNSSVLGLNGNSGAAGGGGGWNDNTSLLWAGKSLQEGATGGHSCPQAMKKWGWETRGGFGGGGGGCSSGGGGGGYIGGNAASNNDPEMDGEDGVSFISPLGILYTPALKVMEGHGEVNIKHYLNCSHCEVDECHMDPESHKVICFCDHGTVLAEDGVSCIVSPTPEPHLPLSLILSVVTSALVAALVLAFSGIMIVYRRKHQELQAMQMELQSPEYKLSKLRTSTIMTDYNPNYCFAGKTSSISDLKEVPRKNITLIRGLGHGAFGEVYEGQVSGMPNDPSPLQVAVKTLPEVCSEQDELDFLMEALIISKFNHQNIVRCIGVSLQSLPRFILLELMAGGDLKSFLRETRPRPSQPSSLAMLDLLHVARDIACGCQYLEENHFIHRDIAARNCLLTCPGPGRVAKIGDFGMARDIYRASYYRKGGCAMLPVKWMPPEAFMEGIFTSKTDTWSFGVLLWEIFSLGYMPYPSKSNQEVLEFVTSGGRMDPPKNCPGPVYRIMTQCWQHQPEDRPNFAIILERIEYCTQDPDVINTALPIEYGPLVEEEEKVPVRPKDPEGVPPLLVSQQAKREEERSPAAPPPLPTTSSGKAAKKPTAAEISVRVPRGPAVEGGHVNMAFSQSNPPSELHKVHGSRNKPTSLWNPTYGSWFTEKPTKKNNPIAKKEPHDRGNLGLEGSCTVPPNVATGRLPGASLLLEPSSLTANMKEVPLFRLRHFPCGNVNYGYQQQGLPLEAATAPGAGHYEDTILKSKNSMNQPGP
T1 sequence (P08581 956-1390 limits assumed): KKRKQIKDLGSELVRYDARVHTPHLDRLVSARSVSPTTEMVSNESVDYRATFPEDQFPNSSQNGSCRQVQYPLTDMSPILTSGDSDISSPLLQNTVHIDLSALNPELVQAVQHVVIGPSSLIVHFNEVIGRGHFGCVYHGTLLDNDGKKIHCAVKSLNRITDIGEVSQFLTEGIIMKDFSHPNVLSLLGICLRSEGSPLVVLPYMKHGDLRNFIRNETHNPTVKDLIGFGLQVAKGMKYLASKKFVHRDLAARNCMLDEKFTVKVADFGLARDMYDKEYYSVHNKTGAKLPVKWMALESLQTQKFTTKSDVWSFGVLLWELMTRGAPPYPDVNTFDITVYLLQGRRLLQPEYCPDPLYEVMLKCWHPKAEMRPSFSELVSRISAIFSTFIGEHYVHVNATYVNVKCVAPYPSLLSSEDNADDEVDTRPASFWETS

SMILES	IC50 [1, 3]	IC50 [2, 4]	IC50 [1, 7]	IC50 [2, 8]	other results
COc1cc2c(cc1Nc1ncc(Cl)c(Nc3ccc(N4CCOCC4)cc3OC)n1)CCN(CC(F)(F)F)CC2 [Example 249, 5-Chloro-N*4*-(2-methoxy-4-morpholin-4-yl-phenyl)-N*2*-[8-methoxy-3-(2,2,2-trifluoro-ethyl)-2,3,4,5-tetrahydro-1H-benzo[d]azepin-7-yl]-pyrimidine-2,4-diamine]	> 10000 nM	< 100 nM	–	–	–
COc1cc2c(cc1Nc1ncc(Cl)c(Nc3ccc(N(C)C)cc3OC)n1)CCN(Cc1nccn1C)CC2 [Example 1173, 5-Chloro-N*4*-(4-dimethylamino-2-methoxy-phenyl)-N*2*-[8-methoxy-3-(1-methyl-1H-imidazol-2-ylmethyl)-2,3,4,5-tetrahydro-1H-benzo[d]azepin-7-yl]-pyrimidine-2,4-diamine]	–	–	–	–	IC50 [1, 5]: > 10000 nM; IC50 [2, 6]: < 100 nM
COc1cc2c(cc1Nc1ncc(Cl)c(N[C@H]3[C@@H](C(N)=O)[C@@H]4C=C[C@H]3C4)n1)N(C)C(=O)CNC2 [Example 743, (1S,2S3,R,4R)-3-[5-Chloro-2-(7-methoxy-1-methyl-2-oxo-2,3,4,5-tetrahydro-1H-benzo[e][1,4]diazepin-8-ylamino)-pyrimidin-4-ylamino]-bicyclo[2.2.1]hept-5-ene-2-carboxylic acid amide]	–	–	> 10000 nM	< 100 nM	–
COc1cc2c(cc1Nc1ncc(Cl)c(NC3(CC(N)=O)CCCCC3)n1)CCN(CCO)CC2 [Example 849, 2-(1-{5-Chloro-2-[3-(2-hydroxy-ethyl)-8-methoxy-2,3,4,5-tetrahydro-1H-benzo[d]azepin-7-ylamino]-pyrimidin-4-ylamino}-cyclohexyl)-acetamide]	–	–	> 10000 nM	< 100 nM	–
COc1cc2c(cc1Nc1ncc(Cl)c(Nc3ccc(N4CCN(C(C)C)CC4)c4c3C(=O)N(C)C4)n1)CCN(CCO)CC2 [Example 953, 7-{5-Chloro-2-[3-(2-hydroxy-ethyl)-8-methoxy-2,3,4,5-tetrahydro-1H-3-benzazepin-7-ylamino]-pyrimidin-4-ylamino}-4-(4-isopropyl-piperazin-1-yl)-2-methyl-2,3-dihydro-isoindol-1-one]	–	–	> 10000 nM	< 100 nM	–
CCN1C(=O)CCCc2c1ccc(Nc1ncc(Cl)c(Nc3ccccc3-c3ncccc3C)n1)c2OC [Example 984, 7-{5-Chloro-4-[2-(3-methyl-pyridin-2-yl)-phenylamino]-pyrimidin-2-ylamino}-1-ethyl-6-methoxy-1,3,4,5-tetrahydro-benzo[b]azepin-2-one]	–	–	> 10000 nM	< 100 nM	–
CNC(=O)c1cc(-c2cnn(C)c2)cc(F)c1Nc1nc(Nc2ccc3c(c2)OCCCN3C(=O)OC)ncc1Cl [Example 1434, 3-{5-Chloro-4-[2-fluoro-6-methylcarbamoyl-4-(1-methyl-1H-pyrazol-4-yl)-phenylamino]-pyrimidin-2-ylamino}-7,8-dihydro-6H-5-oxa-9-aza-benzocycloheptene-9-carboxylic acid methyl ester]	–	–	–	–	IC50 [1, 5]: < 100 nM; IC50 [2, 6]: < 100 nM
COCCN1CCc2ccc(Nc3ncc(Cl)c(Nc4ccccc4C(=O)NCCN4CCCC4)n3)cc2CC1 [Example 1416, 2-{5-Chloro-2-[3-(2-methoxy-ethyl)-2,3,4,5-tetrahydro-1H-benzo[d]azepin-7-ylamino]-pyrimidin-4-ylamino}-N-(2-pyrrolidin-1-yl-ethyl)-benzamide]	–	–	–	–	IC50 [1, 5]: 100 to 1000 nM; IC50 [2, 6]: 100 to 1000 nM
CN1CCNCc2cc(Nc3ncc(Cl)c(Nc4ccccc4NS(C)(=O)=O)n3)ccc21 [Example 421, N-{2-[5-Chloro-2-(1-methyl-2,3,4,5-tetrahydro-1H-benzo[e][1,4]diazepin-7-ylamino)-pyrimidin-4-ylamino]-phenyl}-methanesulfonamide]	100 to 1000 nM	< 100 nM	–	–	–
COCCN1CCc2cc(Nc3ncc(Cl)c(NC4(C(=O)NCC#N)CC4)n3)c(OC)cc2CC1 [Example 1197, 1-{5-Chloro-2-[8-methoxy-3-(2-methoxy-ethyl)-2,3,4,5-tetrahydro-1H-benzo[d]azepin-7-ylamino]-pyrimidin-4-ylamino}-cyclopropanecarboxylic acid cyanomethyl-amide]	–	–	–	–	IC50 [1, 5]: > 10000 nM; IC50 [2, 6]: 1000 to 10000 nM
CNC(=O)c1cccc(Cl)c1Nc1nc(Nc2ccc3c(c2)CCN(CC(=O)N(C)C)CC3)ncc1Cl [Example 1370, 3-Chloro-2-[5-chloro-2-(3-dimethylcarbamoylmethyl-2,3,4,5-tetrahydro-1H-benzo[d]azepin-7-ylamino)-pyrimidin-4-ylamino]-N-methyl-benzamide]	–	–	–	–	IC50 [1, 5]: < 100 nM; IC50 [2, 6]: 100 to 1000 nM
CNC(=O)c1cc(Cl)cc(Cl)c1Nc1nc(Nc2ccc3c(c2)CCN(CCOC)CC3)ncc1Cl [Example 314, 3,5-Dichloro-2-{5-chloro-2-[3-(2-methoxy-ethyl)-2,3,4,5-tetrahydro-1H-benzo[d]azepin-7-ylamino]-pyrimidin-4-ylamino}-N-methyl-benzamide]	< 100 nM	100 to 1000 nM	–	–	–
COc1cc2c(cc1Nc1ncc(Cl)c(Nc3ccccc3S(=O)(=O)N3CCCC3)n1)CCN(CC(=O)N(C)C)CC2 [Example 1181, 2-(7-{5-Chloro-4-[2-(pyrrolidine-1-sulfonyl)-phenylamino]-pyrimidin-2-ylamino}-8-methoxy-1,2,4,5-tetrahydro-benzo[d]azepin-3-yl)-N,N-dimethyl-acetamide]	–	–	–	–	IC50 [1, 5]: 1000 to 10000 nM; IC50 [2, 6]: < 100 nM
COc1cc2c(cc1Nc1ncc(Cl)c(Nc3ccccc3S(=O)(=O)N(C)C)n1)CCN(CCOC(=O)[C@@H](N)C(C)C)CC2 [Example 1544, (S)-2-Amino-3-methyl-butyric acid 2-{7-[5-chloro-4-(2-dimethylsulfamoyl-phenylamino)-pyrimidin-2-ylamino]-8-methoxy-1,2,4,5-tetrahydro-3-benzazepin-3-yl}-ethyl ester]	–	–	–	–	IC50 [1, 9]: 1000 to 10000 nM; IC50 [2, 10]: < 100 nM
CS(=O)(=O)N[C@@H]1CCCC[C@H]1Nc1nc(Nc2ccc3c(c2)CCN(C[C@@H](O)C(F)(F)F)CC3)ncc1Cl [Example 449, N-((1R,2R)-2-{5-Chloro-2-[3-((R)-3,3,3-trifluoro-2-hydroxy-propyl)-2,3,4,5-tetrahydro-1H-benzo[d]azepin-7-ylamino]-pyrimidin-4-ylamino}-cyclohexyl)-methanesulfonamide]	100 to 1000 nM	< 100 nM	–	–	–
CCN1CC(=O)N(CC)c2cc(Nc3ncc(Cl)c(N[C@H]4[C@@H](C(N)=O)[C@@H]5C=C[C@H]4C5)n3)c(OC)cc2C1 [Example 739, (1S,2,3R,4R)-3-[5-Chloro-2-(1,4-diethyl-7-methoxy-2-oxo-2,3,4,5-tetrahydro-1H-benzo[e][1,4]diazepin-8-ylamino)-pyrimidin-4-ylamino]-bicyclo(2.2.1)hept-5-ene-2-carboxylic acid amide]	–	–	> 10000 nM	100 to 1000 nM	–
CNC(=O)c1ccccc1Nc1nc(Nc2ccc3c(c2)CCN(C(C)C)CC3)ncc1Cl [Example 47, 2-[5-Chloro-2-(3-isopropyl-2,3,4,5-tetrahydro-1H-benzo[d]azepin-7-ylamino)-pyrimidin-4-ylamino]-N-methyl-benzamide]	< 100 nM	< 100 nM	–	–	–
CNC(=O)c1ccccc1Nc1nc(Nc2ccc3c(c2)C2CCC3CNC2)ncc1Cl (centres unmarked) [Example 277, 2-[2-(10-Aza-tricyclo[6.3.2.0*2,7*]trideca-2,4,6-trien-4-ylamino)-5-chloro-pyrimidin-4-ylamino]-N-methyl-benzamide]	< 100 nM	< 100 nM	–	–	–
COCCNC1CCc2cc(Nc3ncc(Cl)c(N[C@@H]4CCCC[C@H]4NS(C)(=O)=O)n3)c(OC)cc2CC1 (stereo partly drawn) [Example 896, N-((1R,2R)-2-{5-Chloro-2-[3-methoxy-7-(2-methoxy-ethylamino)-6,7,8,9-tetrahydro-5H-benzocyclohepten-2-ylamino]-pyrimidin-4-ylamino}-cyclohexyl)-methanesulfonamide]	–	–	> 10000 nM	< 100 nM	–
CCN1CCCC(C)(C)c2ccc(Nc3ncc(Cl)c(N[C@H]4[C@@H](C(N)=O)[C@@H]5C=C[C@H]4C5)n3)cc21 [Example 1634, (1S,2S,3R,4R)-3-[5-Chloro-2-(1-ethyl-5,5-dimethyl-2,3,4,5-tetrahydro-1H-benzo[b]azepin-8-ylamino)-pyrimidin-4-ylamino]-bicyclo[2.2.1]hept-5-ene-2-carboxylic acid amide]	–	–	–	–	IC50 [1, 9]: 1000 to 10000 nM; IC50 [2, 10]: < 100 nM

The next lines start with results.

IC50 [1, 3]	IC50 [2, 4]	IC50 [1, 7]	IC50 [2, 8]	SMILES	other results
–	–	> 10000 nM	< 100 nM	COCCN1CCc2cc(Nc3ncc(Cl)c(Nc4ccccc4-c4nccn4C)n3)c(OC)cc2CC1 [Example 986, 5-Chloro-N*2*-[8-methoxy-3-(2-methoxy-ethyl)-2,3,4,5-tetrahydro-1H-benzo[d]azepin-7-yl]-N*4*-[2-(1-methyl-1H-imidazol-2-yl)-phenyl]-pyrimidine-2,4-diamine]	–
< 100 nM	< 100 nM	–	–	CNC(=O)c1cccc(F)c1Nc1nc(Nc2ccc3c(c2)N(C(C)=O)CC(=O)NC3)ncc1Cl [Example 1877, 2-[2-(1-Acetyl-3-oxo-2,3,4,5-tetrahydro-1H-benzo[e][1,4]diazepin-8-ylamino)-5-chloro-pyrimidin-4-ylamino]-3-fluoro-N-methyl-benzamide]	–
